Experimental findings from article PMC6993528, “Dehydroepiandrosterone and Its CYP7B1 Metabolite 7α-Hydroxydehydroepiandrosterone Regulates 11β-Hydroxysteroid Dehydrogenase 1 Directions in Rat Leydig Cells” (Frontiers in Endocrinology, 2020) are described below.

“Also recorded” adds a separate entry of the source.

Data set [1] addresses T1, 11β-HSD1 (Rattus norvegicus, UniProt P16232).
T1 construct: endogenous in cells; host or cells: primary rat adult Leydig cells (ALCs) from 90-day-old rat testes
Description: 11β-HSD1 oxidase assay in intact ALCs (CORT to DHC). It counts as cell-based. To be noted: for lowest observable effective level (LOEL) on 11β-HSD1 oxidase activity: 10 nM-10 μM tested. The source says: (§1) Testes were processed for purification of Leydig cells. The progenitor (PLC), immature (ILC), and adult Leydig cells (ALC) were purified from rat testes at 21, 35, and 90 days postpartum, as described previously ([25], [26]). In brief, forty 21-day-old (for PLCs), eighteen 35-day-old (for ILCs), and six 90-day-old (for ALCs) rats were sacrificed, followed by removal and decapsulation of testes. Then, the testes were digested with collagenase and cells were separated by Percoll density gradient centrifugation. Purities of Leydig cell fractions were evaluated by histochemical staining of 3β-hydroxysteroid dehydrogenase (3β-HSD), with 0.4 mM etiocholanolone as an enzyme substrate ([27]). At least six isolations per cell types were performed.
(§2) 11β-HSD1 oxidase and reductase in intact ALCs were performed as previously described ([15]).11β-HSD1 oxidase activity assay tubes contained 25 nM CORT spiked with 60,000 dpm [^3H]-CORT (a concentration within the range of physiological levels of CORT). 11β-HSD1 reductase activity assay tubes contained 25 nM DHC spiked with 60,000 dpm [^3H]-DHC. 2.5 × 10^4 intact ALCs were added to start the reaction and the reaction was maintained in 34°C and 75 rpm shaking water bath for 30 min. The reactions were stopped by adding 2 ml ice-cold ether. The steroids were extracted, and the organic layer was dried under nitrogen. The steroids were separated chromatographically on thin layer plates in chloroform and methanol (90:10, v/v), and the radioactivity was measured using a scanning radiometer (System AR2000, Bioscan Inc., Washington, DC). The percentage conversion of CORT to DHC and DHC to CORT was calculated by dividing the radioactive counts identified as DHC (or CORT, respectively) by the total counts associated with CORT plus DHC.

Data set [2] deals with T1, 11β-HSD1. Description: 11β-HSD1 reductase assay in intact ALCs (DHC to CORT). The data set is classed as cell-based. To be noted: for lowest observable effective level (LOEL) on 11β-HSD1 reductase activity: 10 nM-10 μM tested.
Text: as §1, §2

The target of data set [3] is T1, 11β-HSD1. Description: 11β-HSD1 oxidase assay in ALC microsomes. The data set is classed as biochemical. On the procedure: (§3) The microsomes from ALCs were prepared as described previously ([6]). In brief, ALCs were homogenized in cold 0.01M PBS, pH 7.2, containing 0.25 M sucrose. Subsequently, the homogenates were centrifuged at 700 × g for 30 min and the supernatants were transferred to other tubes followed by centrifugation at 10,000 × g for 30 min. The resultant supernatants were centrifuged twice at 105,000 × g for 1 h. The pellets were resuspended and the protein contents were determined by Bio-Rad Protein Assay Kit (cat# 500–0006, Bio-Rad, Hercules, CA). Microsomes were used to assay 11β-HSD1 oxidoreductase activities.
(§4) 11β-HSD1 oxidase and reductase in microsomes were performed as previously described ([15]). For measurements in microsomal preparations, microsomes were incubated with 25 nM [^3H]-CORT and 0.2 mM NADP^+ for oxidase or 25 nM [^3H]-DHC and 0.2 mM NADPH for reductase activity in presence of different concentrations of DHEA or 7αOHD. For testing mode of action, microsomes were incubated with 2 nM to 10 μM [^3H]-CORT and 0.2 mM NADP^+ for oxidase or 2 nM to 10 μM [^3H]-DHC and 0.2 mM NADPH for reductase activity. 1.5 μg of ALC microsomes were added to initiate the reaction. The reactions were stopped by adding 2 ml ice-cold ether. The steroids were extracted, and the organic layer was dried under nitrogen. The steroids were separated chromatographically on thin layer plates in chloroform and methanol (90:10, v/v), and the radioactivity was measured using a scanning radiometer (System AR2000, Bioscan Inc., Washington, DC). The percentage conversion of CORT to DHC and DHC to CORT was calculated by dividing the radioactive counts identified as DHC (or CORT, respectively) by the total counts associated with CORT plus DHC.

Data set [4] concerns the target T1, 11β-HSD1. Kind of data set: 11β-HSD1 reductase assay in ALC microsomes. It counts as biochemical. As to conditions: for LOEL on 11β-HSD1 reductase activity in ALC microsomes: 10 nM-10 μM tested. On the procedure: as §3, §4
The mark [5] stands for this setting: ALC microsomes, 0, 1 and 10 μM, Lineweaver-Burk plot.

T1 sequence (P16232 whole entry): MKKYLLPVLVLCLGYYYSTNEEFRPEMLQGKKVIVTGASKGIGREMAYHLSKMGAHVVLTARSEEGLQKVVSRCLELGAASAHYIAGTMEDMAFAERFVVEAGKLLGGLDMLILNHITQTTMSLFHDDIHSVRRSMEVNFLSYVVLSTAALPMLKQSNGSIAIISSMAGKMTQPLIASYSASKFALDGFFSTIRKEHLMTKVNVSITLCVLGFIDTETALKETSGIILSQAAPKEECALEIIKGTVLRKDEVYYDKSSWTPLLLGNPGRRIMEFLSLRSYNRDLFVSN

The term IC50 denotes the concentration that gives 50% inhibition. What is called EC50 is the concentration giving half of the maximal effect. Take `C[C@]12CC[C@H](O)CC1=C[C@@H](O)[C@@H]1[C@@H]2CC[C@]2(C)C(=O)CC[C@@H]12` [7αOHD, 7α-hydroxydehydroepiandrosterone]: the “lowest observable effective level (LOEL) on 11β-HSD1 oxidase activity” value at 11β-HSD1 [1] (intact ALCs) is on record as 100 nM. The IC50 on 11β-HSD1 [1] (intact ALCs, 25 nM CORT, 0.5 h, Mean ± SEM (n = 4), read-out: IC50 for inhibition of 11β-HSD1 oxidase, intact Leydig cells) is 1180 ± 120 nM; at 11β-HSD1 [3] (ALC microsomes, 25 nM CORT plus 0.2 mM NADP+, read-out: IC50 for inhibiting 11β-HSD1 oxidase activity in ALC microsomes), 930 nM. For the same compound, the 11β-HSD1 oxidase activity at 11β-HSD1 [1] (intact ALCs, at 1 μM) is given as 60 % of control; at 11β-HSD1 [1] (intact ALCs, at 10 μM) it was 25 % of control. In addition, the 11β-HSD1 oxidase/reductase ratio was 50 % of control at 11β-HSD1 [1] (intact ALCs, at 1 μM) and 20 % of control on 11β-HSD1 [1] (intact ALCs, at 10 μM). The “lowest observable effective level (LOEL) on 11β-HSD1 reductase activity” value at 11β-HSD1 [2] (intact ALCs) was 100 nM. Also, the EC50 on 11β-HSD1 [2] (intact ALCs, 25 nM DHC, 0.5 h, Mean ± SEM (n = 4), read-out: EC50 for stimulation of 11β-HSD1 reductase, intact Leydig cells) was 700 ± 40 nM; on 11β-HSD1 [4] (ALC microsomes, 25 nM DHC plus 0.2 mM NADPH, Mean ± SEM (n = 4), read-out: EC50 for stimulation of 11β-HSD1 reductase, microsome) it was 200 ± 10 nM. In addition, the 11β-HSD1 reductase activity at 11β-HSD1 [2] (intact ALCs, at 1 μM) is 200 % of control; on 11β-HSD1 [2] (intact ALCs, at 10 μM), 200 % of control. In addition, the “mode of action on 11β-HSD1 oxidase” value at 11β-HSD1 [3] (setting [5]) is “competitive inhibitor”. The “LOEL on 11β-HSD1 oxidase activity in ALC microsomes” value on 11β-HSD1 [3] (ALC microsomes, 10 nM-10 μM tested) amounted to 100 nM. Further, the “EC50/IC50 for 11β-HSD1 oxidase, microsome” value on 11β-HSD1 [3] (ALC microsomes, 25 nM CORT plus 0.2 mM NADP+, ND, not detected, Mean ± SEM (n = 4)) is given as 0.93 ±0.14 ×10^−6 M. The results for the “11β-HSD1 oxidase activity in ALC microsomes” value at 11β-HSD1 [3] (at 1 μM) and at 11β-HSD1 [3] (at 10 μM) were 60 % of control and 25 % of control, respectively. For the same compound, the “11β-HSD1 oxidase/reductase ratio in ALC microsomes” value on 11β-HSD1 [3] (at 0.1–10 μM) is reported as “significantly decreased”. For the same compound, the “LOEL on 11β-HSD1 reductase activity in ALC microsomes” value at 11β-HSD1 [4] (ALC microsomes) amounted to 100 nM. The “effect on 11β-HSD1 reductase activity in ALC microsomes at the highest concentration” value on 11β-HSD1 [4] (at the highest concentration (100 nM)) is on record as “did not affect”.

With `C[C@]12CC[C@H](O)CC1=CC[C@@H]1[C@@H]2CC[C@]2(C)C(=O)CC[C@@H]12` [DHEA, dehydroepiandrosterone], at 11β-HSD1 [1], the EC50 amounted to 970 ± 100 nM. The “lowest observable effective level (LOEL) on 11β-HSD1 oxidase activity” value on 11β-HSD1 [1] (intact ALCs) came to 100 nM. On 11β-HSD1 [1] (intact ALCs, at 10 μM), the 11β-HSD1 oxidase activity is 300 % of control and the “increase of 11β-HSD1 oxidase/reductase ratio” value is 26 folds. In addition, the IC50 on 11β-HSD1 [2] was found to be 1040 ± 60 nM. Further, on 11β-HSD1 [2] (intact ALCs), the “lowest observable effective level (LOEL) on 11β-HSD1 reductase activity” value was found to be 100 nM. Besides, at 11β-HSD1 [2] (intact ALCs, at 10 μM), the 11β-HSD1 reductase activity is on record as 12 % of control. At 11β-HSD1 [3] (ALC microsomes, 10 nM-10 μM), the “effect on microsomal 11β-HSD1 oxidase activity” value is on record as “did not affect; also recorded: nearly unchanged”. For the same compound, on 11β-HSD1 [3] (ALC microsomes, at 10 μM), the “effect on microsomal 11β-HSD1 oxidase activity at 10 μM” value is “inhibited”. Also, the “11β-HSD1 oxidase/reductase ratio in ALC microsomes” value on 11β-HSD1 [3] (at 1 and 10 μM) is given as “significantly higher than control”. The “mode of action on 11β-HSD1 reductase” value on 11β-HSD1 [4] (setting [5]) is listed as “potent competitive inhibitor”. Further, at 11β-HSD1 [4] (ALC microsomes), the “LOEL on 11β-HSD1 reductase activity in ALC microsomes” value is 100 nM. The “11β-HSD1 reductase activity in ALC microsomes” value on 11β-HSD1 [4] (at 10 μM) is reported as 25 % of control.
